{"source": "patent US20210236523A1", "about": "“P[…] FOR HEADACHE DISORDERS” (priority 2020, published 2021)", "key": {"[1]": {"test_system": "patients with cluster headache", "assay": "Cluster headache study: tolerability and adverse events", "type": "in vivo, human", "procedure": "Sessions were conducted in the Neurobiological Studies Unit (NSU) at VACHS. Subjects reported to the NSU at 08:00; urine drug, urine pregnancy (when applicable), and alcohol breathalyzer tests were required to be negative in order to proceed. After a standard light breakfast, an intravenous line was placed and baseline measures were collected. Subjects typically received the drug capsule between 08:30 and 09:30. Blood pressure, heart rate, and peripheral oxygenation were measured at baseline and throughout experimental sessions. Drug effects (overall, anxiety/fear, sleepiness/sedation, nausea, joy/intense happiness, peace/harmony) were self-reported on a 0-3 scale (0=none, 1=minimal, 2=moderate, 3=definite) at baseline and throughout experimental sessions. Psychedelic effects were self-reported at the end of experimental sessions using the validated 5-Dimensional Altered States of Consciousness (5D-ASC) scale. Subjects were discharged from the NSU at 6 hours after capsule ingestion or once physiological and psychological drug effects had resolved. Subjects were not allowed to drive themselves after experimental sessions. Emergency contacts, including 24-hour/7-day psychiatry services, were provided to all subjects.\nTelephone follow-up was performed the day after each experimental session and weekly for two weeks and at 2, 3, and 6 months after the last experimental session."}, "[2]": {"test_system": "patients with migraine headache", "assay": "Migraine study: acute physiologic and psychotropic effects and adverse events of drug administration", "type": "in vivo, human", "procedure": "Blood pressure, heart rate, and peripheral oxygenation were measured at baseline and throughout experimental sessions. Acute headache pain and associated symptoms (if present) and drug effects (overall, anxiety/fear, sleepiness/sedation, nausea, joy/intense happiness, peace/harmony) were self-reported on a 0-3 scale (0=none, 1=minimal, 2=moderate, 3=definite) at baseline and throughout experimental sessions. Psychedelic effects were self-reported at the end of experimental sessions using the validated 5-Dimensional Altered States of Consciousness (5D-ASC) scale. Subjects were discharged from the NSU at 6 hours after capsule ingestion or once physiological and psychological drug effects had resolved. Only one subject remained in the NSU for an additional 60 minutes until drug effects resolved. Subjects were not allowed to drive themselves after experimental sessions. Emergency contacts, including 24-hour/7-day psychiatry services, were provided to all subjects.\nTelephone follow-up was performed the day after and weekly for two weeks after each experimental session, and at 2 and 3 months after the second experimental session.\nStatistical analyses were performed using SAS, version 9.4 (SAS Institute Inc., Cary, N.C.) and figures were produced with GraphPad Prism (GraphPad Software Inc., La Jolla, Calif.). All statistical tests were two-sided with an overall pre-hypothesis alpha threshold of 0.05. Measures of error are shown as standard error about the mean (SEM). The primary clinical outcome measure was change in weekly migraine days (WMD) from baseline. This and the secondary measures of migraine burden—changes from baseline in weekly migraine attacks (WMA), pain severity, light sensitivity severity, sound sensitivity severity, nausea/vomiting severity, attack-related functional impairment, and weekly migraine abortive use—were calculated and compared via paired t-test. The time to the next two migraine attacks were also compared between placebo and psilocybin via paired t test. Acute effects of drug administration on mean arterial pressure (MAP), heart rate, peripheral oxygenation, and general drug effects were analyzed via 2-way repeated measures ANOVA with post-hoc Fisher least significant difference (LSD) test (when the interaction existed). Psychotropic effects as measured by the 5D-ASC scale were calculated as a percent of the total possible score 21, 22, as well as the percent possible score of each of the scale's five dimensions—oceanic boundlessness (OBN), dread of ego dissolution (DED), visionary restructuralization (VRS), acoustic alterations (AUA), and vigilance reduction (VIR). Percent possible scores were then compared between placebo and psilocybin via paired t-test. In order to test the assumption that psychotropic effects are unrelated to effects on migraine activity, the maximum rating of general drug effects and the percent total possible 5D-ASC scale score were correlated to the percent change in WMD after psilocybin administration. The number of adverse events (AEs) were compared between placebo and psilocybin using inference on proportions."}}, "data": [{"smiles": "CN(C)CCc1c[nH]c2cccc(OP(=O)(O)O)c12", "note": "[psilocybin, 3-(2-dimethylaminoethyl)-1H-indol-4-yl] dihydrogen phosphate]", "values": [{"measurement": "serious or unexpected adverse events", "setting": "[1]; cluster headache study, 3-dose pulse 0.143 mg/kg", "result": "no serious or unexpected adverse events"}, {"measurement": "lasting physical or psychological changes", "setting": "[1]; follow-up in the 6 months after study participation", "result": "no lasting physical or psychological changes"}, {"measurement": "most commonly reported adverse events during acute exposure", "setting": "[1]; self-limiting", "result": "nausea and anxiety"}, {"measurement": "maximum increase in mean arterial pressure (MAP) over placebo", "setting": "[2]; at 1.5 hours after capsule ingestion, 0.143 mg/kg oral, mean (SEM)", "result": "12.2 (4.7) mmHg"}, {"measurement": "tingling/paresthesia, cold/shivering, dry mouth, and acute migraine reported", "setting": "[2]; during experimental session, 0.143 mg/kg oral", "result": "one subject each"}, {"measurement": "lightheadedness and generalized tension/sore muscles, numbers vs placebo", "setting": "[2]; during experimental sessions", "result": "not significant"}, {"measurement": "drug x time interaction on heart rate or peripheral oxygenation", "setting": "[2]; during experimental sessions, 0.143 mg/kg oral", "result": "no significant interactions"}, {"measurement": "5D-ASC scale, percent possible score for the total scale score", "setting": "[2]; end of experimental test day, 0.143 mg/kg oral, mean (SEM), P=0.0263 vs placebo", "result": 19.35, "unit": "%"}, {"measurement": "tension/sore muscles, general headache attack, and migraine attack vs placebo", "setting": "[2]; in the 24 hours following the start of experimental sessions", "result": "no significant differences"}, {"measurement": "serious or unexpected adverse events", "setting": "[2]; migraine study, single oral dose 0.143 mg/kg", "result": "no serious or unexpected AEs"}, {"measurement": "MAP vs placebo (post-hoc Fisher LSD)", "setting": "[2]; starting at 45 minutes until 4 hours after capsule ingestion, 0.143 mg/kg oral", "result": "significant increase"}]}]}
